Data from patent EP0284935A1, “5-Substituted quinolone- and naphthyridone carboxylic acid derivatives” (BAYER AG, priority 1987, dated 1988).
Converted amounts (≈) assume the structure as drawn.

Experiments:
Experiment in all cases: Agar dilution test, minimum inhibitory concentration
Type in all cases: cell-based
Serratia 16040 = details: test strain Serratia 16040; Isosensitest-Agar (Oxoid), inoculum ca. 10^4 germs per inoculation point; read-out: Minimale Hemmkonzentrationen
Staph. 1756 = details: test strain Staph. 1756; Isosensitest-Agar (Oxoid), inoculum ca. 10^4 germs per inoculation point; read-out: Minimale Hemmkonzentrationen
Staph. 133 = details: test strain Staph. 133; Isosensitest-Agar (Oxoid), inoculum ca. 10^4 germs per inoculation point; read-out: Minimale Hemmkonzentrationen
Staph. FK 422 = details: test strain Staph. FK 422; Isosensitest-Agar (Oxoid), inoculum ca. 10^4 germs per inoculation point; read-out: Minimale Hemmkonzentrationen
E.coli 455/7 = details: Escherichia coli; test strain E.coli 455/7; Isosensitest-Agar (Oxoid), inoculum ca. 10^4 germs per inoculation point; read-out: Minimale Hemmkonzentrationen
Proteus mir. 8175 = details: test strain Proteus mir. 8175; Isosensitest-Agar (Oxoid), inoculum ca. 10^4 germs per inoculation point; read-out: Minimale Hemmkonzentrationen
Proteus mir. 8223 = details: test strain Proteus mir. 8223; Isosensitest-Agar (Oxoid), inoculum ca. 10^4 germs per inoculation point; read-out: Minimale Hemmkonzentrationen
Pseudomonas Walter = details: test strain Pseudomonas Walter; Isosensitest-Agar (Oxoid), inoculum ca. 10^4 germs per inoculation point; read-out: Minimale Hemmkonzentrationen
Providencia 12052 = details: test strain Providencia 12052; Isosensitest-Agar (Oxoid), inoculum ca. 10^4 germs per inoculation point; read-out: Minimale Hemmkonzentrationen
Providencia 12012 = details: test strain Providencia 12012; Isosensitest-Agar (Oxoid), inoculum ca. 10^4 germs per inoculation point; read-out: Minimale Hemmkonzentrationen
Enteroc. 9790 = details: test strain Enteroc. 9790; Isosensitest-Agar (Oxoid), inoculum ca. 10^4 germs per inoculation point; read-out: Minimale Hemmkonzentrationen
Morg. morg. 932 = details: test strain Morg. morg. 932; Isosensitest-Agar (Oxoid), inoculum ca. 10^4 germs per inoculation point; read-out: Minimale Hemmkonzentrationen
Enteroc. 27101 = details: test strain Enteroc. 27101; Isosensitest-Agar (Oxoid), inoculum ca. 10^4 germs per inoculation point; read-out: Minimale Hemmkonzentrationen
Klebsiella 63 = details: test strain Klebsiella 63; Isosensitest-Agar (Oxoid), inoculum ca. 10^4 germs per inoculation point; read-out: Minimale Hemmkonzentrationen
Pseudomonas Ellsworth = details: test strain Pseudomonas Ellsworth; Isosensitest-Agar (Oxoid), inoculum ca. 10^4 germs per inoculation point; read-out: Minimale Hemmkonzentrationen
Morg. morg. 11006 = details: test strain Morg. morg. 11006; Isosensitest-Agar (Oxoid), inoculum ca. 10^4 germs per inoculation point; read-out: Minimale Hemmkonzentrationen
E.coli A261 = details: Escherichia coli; test strain E.coli A261; Isosensitest-Agar (Oxoid), inoculum ca. 10^4 germs per inoculation point; read-out: Minimale Hemmkonzentrationen
Klebsiella 8085 = details: test strain Klebsiella 8085; Isosensitest-Agar (Oxoid), inoculum ca. 10^4 germs per inoculation point; read-out: Minimale Hemmkonzentrationen
Proteus vulg. 1017 = details: test strain Proteus vulg. 1017; Isosensitest-Agar (Oxoid), inoculum ca. 10^4 germs per inoculation point; read-out: Minimale Hemmkonzentrationen

Compound	MIC (Serratia 16040) [µg/mL]	MIC (Staph. 1756) [µg/mL]	MIC (Staph. 133) [µg/mL]	MIC (Staph. FK 422) [µg/mL]	MIC (E.coli 455/7) [µg/mL]	MIC (Proteus mir. 8175) [µg/mL]	MIC (Proteus mir. 8223) [µg/mL]	MIC (Pseudomonas Walter) [µg/mL]	MIC (Providencia 12052) [µg/mL]	MIC (Providencia 12012) [µg/mL]	MIC (Enteroc. 9790) [µg/mL]	MIC (Morg. morg. 932) [µg/mL]	MIC (Enteroc. 27101) [µg/mL]	MIC (Klebsiella 63) [µg/mL]	MIC (Pseudomonas Ellsworth) [µg/mL]	MIC (Morg. morg. 11006) [µg/mL]	MIC (E.coli A261) [µg/mL]	MIC (Klebsiella 8085) [µg/mL]	MIC (Proteus vulg. 1017) [µg/mL]
CC1CN(c2c(F)c(N)c3c(=O)c(C(=O)O)cn(C4CC4)c3c2F)CCN1 (stereo not drawn) [Beispiel 17, 5-Amino-1-cyclopropyl-6,8-difluor-1,4-dihydro-7-(3-methyl-1-piperazinyl)-4-oxo-3-chinolincarbonsäure]	2 (≈ 5.29 µM)	0.03 (≈ 0.0793 µM)	0.03 (≈ 0.0793 µM)	0.03 (≈ 0.0793 µM)	0.5 (≈ 1.32 µM)	0.06 (≈ 0.159 µM)	0.25 (≈ 0.661 µM)	0.25 (≈ 0.661 µM)	2 (≈ 5.29 µM)										
Nc1c(F)c(N2CCN(CCO)CC2)c(F)c2c1c(=O)c(C(=O)O)cn2C1CC1 [Beispiel 21]	4 (≈ 9.79 µM)	0.06 (≈ 0.147 µM)	0.06 (≈ 0.147 µM)	0.06 (≈ 0.147 µM)	2 (≈ 4.9 µM)		0.5 (≈ 1.22 µM)	1 (≈ 2.45 µM)	2 (≈ 4.9 µM)	0.06 (≈ 0.147 µM)	0.25 (≈ 0.612 µM)	0.03 (≈ 0.0735 µM)	0.25 (≈ 0.612 µM)	0.06 (≈ 0.147 µM)			0.5 (≈ 1.22 µM)	0.06 (≈ 0.147 µM)	
Nc1c(F)c(N2CCNC(c3ccc(F)cc3)C2)c(F)c2c1c(=O)c(C(=O)O)cn2C1CC1 (stereo not drawn) [Beispiel 24, 5-Amino-1-cyclopropyl-6,8-difluor-7-[3-(4-fluorphenyl)-1-piperazinyl]-1,4-dihydro-4-oxo-3-chinolincarbonsäure]	8 (≈ 17.5 µM)	0.06 (≈ 0.131 µM)	0.06 (≈ 0.131 µM)		4 (≈ 8.73 µM)	0.25 (≈ 0.545 µM)	2 (≈ 4.36 µM)	2 (≈ 4.36 µM)	4 (≈ 8.73 µM)		0.25 (≈ 0.545 µM)		0.25 (≈ 0.545 µM)		0.25 (≈ 0.545 µM)	0.25 (≈ 0.545 µM)	1 (≈ 2.18 µM)		0.06 (≈ 0.131 µM)

Other lines, results leading:

MIC (Serratia 16040) [µg/mL]	MIC (Staph. 1756) [µg/mL]	MIC (Staph. 133) [µg/mL]	MIC (Staph. FK 422) [µg/mL]	MIC (E.coli 455/7) [µg/mL]	MIC (Proteus mir. 8175) [µg/mL]	MIC (Proteus mir. 8223) [µg/mL]	MIC (Pseudomonas Walter) [µg/mL]	MIC (Providencia 12052) [µg/mL]	MIC (Providencia 12012) [µg/mL]	MIC (Enteroc. 9790) [µg/mL]	MIC (Morg. morg. 932) [µg/mL]	MIC (Enteroc. 27101) [µg/mL]	MIC (Klebsiella 63) [µg/mL]	MIC (Pseudomonas Ellsworth) [µg/mL]	MIC (Morg. morg. 11006) [µg/mL]	MIC (E.coli A261) [µg/mL]	MIC (Klebsiella 8085) [µg/mL]	MIC (Proteus vulg. 1017) [µg/mL]	Compound
4 (≈ 10.2 µM)	0.06 (≈ 0.153 µM)	0.06 (≈ 0.153 µM)	0.06 (≈ 0.153 µM)	2 (≈ 5.1 µM)		0.25 (≈ 0.637 µM)	1 (≈ 2.55 µM)	1 (≈ 2.55 µM)	0.06 (≈ 0.153 µM)	0.25 (≈ 0.637 µM)	0.03 (≈ 0.0765 µM)	0.25 (≈ 0.637 µM)	0.03 (≈ 0.0765 µM)	0.03 (≈ 0.0765 µM)	0.06 (≈ 0.153 µM)	0.25 (≈ 0.637 µM)	0.06 (≈ 0.153 µM)		CCN1CCN(c2c(F)c(N)c3c(=O)c(C(=O)O)cn(C4CC4)c3c2F)CC1 [Beispiel 20, 5-Amino-1-cyclopropyl-7-(4-ethyl-1-piperazinyl)-6,8-difluor-1.4-dihydro-4-oxo-3-chinolincarbonsäure]
2 (≈ 5.1 µM)	0.03 (≈ 0.0765 µM)	0.03 (≈ 0.0765 µM)	0.03 (≈ 0.0765 µM)	0.5 (≈ 1.27 µM)	0.06 (≈ 0.153 µM)	0.5 (≈ 1.27 µM)	0.5 (≈ 1.27 µM)	1 (≈ 2.55 µM)	0.03 (≈ 0.0765 µM)	0.25 (≈ 0.637 µM)	0.03 (≈ 0.0765 µM)		0.03 (≈ 0.0765 µM)	0.03 (≈ 0.0765 µM)	0.03 (≈ 0.0765 µM)		0.06 (≈ 0.153 µM)		C[C@@H]1CN(c2c(F)c(N)c3c(=O)c(C(=O)O)cn(C4CC4)c3c2F)C[C@H](C)N1 [Beispiel 22, 5-Amino-1-cyclopropyl-6,8-difluor-1,4-dihydro-7-(cis-3,5-dimethyl-1-piperazinyl)-4-oxo-3-chinolincarbonsäure]
2 (≈ 4.54 µM)				1 (≈ 2.27 µM)	0.06 (≈ 0.136 µM)		1 (≈ 2.27 µM)	1 (≈ 2.27 µM)		0.06 (≈ 0.136 µM)		0.03 (≈ 0.0681 µM)			0.03 (≈ 0.0681 µM)	0.25 (≈ 0.568 µM)	0.03 (≈ 0.0681 µM)		Nc1c(F)c(N2CCNC(c3ccccc3)C2)c(F)c2c1c(=O)c(C(=O)O)cn2C1CC1 (stereo not drawn) [Beispiel 23, 5-Amino-1-cyclopropyl-6,8-difluor-1,4-dihydro-4-oxo-7-(3-phenyl-1-piperazinyl)-3-chinolincarbonsäure]
